Test results from US10377753B2, “Substituted 4-azaindoles and their use as GluN2B receptor modulators” (Janssen Pharmaceutica NV, priority 2015, dated 2019).

biological target: cloned human NR1/NR2B ion channels (Homo sapiens (Human), UniProt Q05586+Q13224); experiment: HNR2BC: effects of test articles on cloned human NR1/NR2B ion channels expressed in mammalian cells (FLIPR calcium flux); assay type: cell-based; details: cloned human NR1/NR2B, Table 5
Method: HNR2BC: Effects of Test Articles on Cloned Human NR1/NR2B Ion Channels Expressed in Mammalian Cells
NMDA receptors are ion channels that are highly permeable to Ca^2+ ions, rendering it possible to monitor NMDA receptor function using cell-based calcium flux assay. In this assay, co-agonists glutamate and glycine are added to cells heterologously expressing human GluN1/GluN2B NMDA receptors to initiate cellular Ca^2+ influx. The time course of the changes in intracellular calcium is measured using a fluorescent dye and a FLIPR (Fluorometric Imaging Plate Reader) device.
Twenty four hours before measurements, the expression of the NMDA receptors in the stable cell line is induced with Tet-On inducible system in the presence of a non-selective NMDA receptor blocker. On the day of the experiment, cell culture media is carefully washed and the cells are loaded with Calcium 5 Dye Kit (Molecular Devices) in dye loading buffer containing 137 mM NaCl, 4 mM KCl, 2 mM CaCl2, 0.5 mM MgCl2, 10 mM HEPES and 5 mM D-glucose; pH 7.4. After 1 h incubation at the room temperature, the dye is washed away with the assay buffer (137 mM NaCl, 4 mM KCl, 2 mM CaCl2, 0.01 mM EDTA, 10 mM HEPES and 5 mM D-glucose; pH 7.4) In the FLIPR TETRA reader, various concentrations of the test compounds are added to the cells for 5 min while fluorescence is monitored to detect potential agonist activity. Next, co-agonists, glutamate and glycine are added for another 5 minutes. The concentration of glutamate corresponding to ˜EC80 is used to maximize the assay's signal window and ability to detect NMDA receptor antagonists and negative allosteric modulators. A saturating concentration (10 μM) of glycine is also present in the assay. […] The fluorescent signal in the presence of test compounds is quantified and normalized to the signal defined by the appropriate control wells.

cloned human NR1/NR2B ion channels, sequence (Q13224 27-1484, other chains not shown): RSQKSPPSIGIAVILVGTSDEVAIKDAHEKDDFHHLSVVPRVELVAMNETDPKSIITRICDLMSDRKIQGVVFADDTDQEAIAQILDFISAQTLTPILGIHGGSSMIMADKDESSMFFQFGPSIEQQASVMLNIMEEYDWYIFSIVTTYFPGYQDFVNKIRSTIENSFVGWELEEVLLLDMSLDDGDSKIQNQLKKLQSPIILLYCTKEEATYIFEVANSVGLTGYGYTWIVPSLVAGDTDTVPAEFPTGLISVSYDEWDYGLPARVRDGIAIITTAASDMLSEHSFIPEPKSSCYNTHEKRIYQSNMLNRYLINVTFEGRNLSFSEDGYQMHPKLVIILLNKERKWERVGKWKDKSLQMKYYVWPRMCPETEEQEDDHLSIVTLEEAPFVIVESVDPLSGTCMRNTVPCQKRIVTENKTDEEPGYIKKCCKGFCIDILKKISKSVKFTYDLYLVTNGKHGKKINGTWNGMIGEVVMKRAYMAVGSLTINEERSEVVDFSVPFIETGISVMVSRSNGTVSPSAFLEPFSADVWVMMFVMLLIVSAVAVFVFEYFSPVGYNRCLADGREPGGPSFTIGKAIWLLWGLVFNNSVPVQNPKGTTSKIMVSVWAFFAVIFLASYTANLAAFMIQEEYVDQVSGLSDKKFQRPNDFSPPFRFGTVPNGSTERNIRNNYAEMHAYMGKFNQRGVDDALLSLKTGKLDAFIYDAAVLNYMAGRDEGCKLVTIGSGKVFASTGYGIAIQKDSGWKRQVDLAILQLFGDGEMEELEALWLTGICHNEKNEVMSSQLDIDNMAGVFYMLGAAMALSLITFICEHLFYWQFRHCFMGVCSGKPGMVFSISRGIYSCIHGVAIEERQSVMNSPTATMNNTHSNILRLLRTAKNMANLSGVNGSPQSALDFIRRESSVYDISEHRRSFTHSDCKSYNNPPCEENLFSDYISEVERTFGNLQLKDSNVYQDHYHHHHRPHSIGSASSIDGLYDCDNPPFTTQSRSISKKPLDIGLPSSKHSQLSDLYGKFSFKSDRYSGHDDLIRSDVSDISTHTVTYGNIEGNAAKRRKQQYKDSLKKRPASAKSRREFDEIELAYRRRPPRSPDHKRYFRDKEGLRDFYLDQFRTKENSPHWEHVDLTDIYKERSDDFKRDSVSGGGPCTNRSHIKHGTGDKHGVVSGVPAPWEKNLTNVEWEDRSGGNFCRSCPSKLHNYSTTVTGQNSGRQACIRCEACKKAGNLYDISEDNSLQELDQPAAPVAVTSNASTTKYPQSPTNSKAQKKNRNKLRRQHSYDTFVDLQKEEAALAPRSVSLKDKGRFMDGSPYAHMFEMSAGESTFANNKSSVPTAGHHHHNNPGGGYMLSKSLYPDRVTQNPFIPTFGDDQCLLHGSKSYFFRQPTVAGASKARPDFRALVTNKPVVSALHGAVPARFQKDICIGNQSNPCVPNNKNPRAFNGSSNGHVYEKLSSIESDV

IC50	Structure (SMILES)
100 nM	Cc1cccc(-c2cnc3c(Br)cn(CC(=O)N4CCOCC4)c3c2)c1 [Example 24, 2-[3-Bromo-6-(m-tolyl)pyrrolo[3,2-b]pyridin-1-yl]-1-morpholino-ethanone]
79.4 nM	Cc1cc(-c2cnc3c(Cl)cn(CC(=O)N4CC(F)(F)C4)c3c2)ccc1F [Example 25, 2-[3-Chloro-6-(4-fluoro-3-methyl-phenyl)pyrrolo[3,2-b]pyridin-1-yl]-1-(3,3-difluoroazetidin-1-yl)ethanone]
39.8 nM	Cc1cc(-c2cnc3c(Cl)cn(CC(=O)N4CC(F)C4)c3c2)ccc1F [Example 26, 2-[3-Chloro-6-(4-fluoro-3-methyl-phenyl)pyrrolo[3,2-b]pyridin-1-yl]-1-(3-fluoroazetidin-1-yl)ethanone]
50.1 nM	Cc1cn(CC(=O)N2CCCC2)c2cc(-c3ccc(F)cc3)cnc12 [Example 27, 2-[6-(4-Fluorophenyl)-3-methyl-pyrrolo[3,2-b]pyridin-1-yl]-1-pyrrolidin-1-yl-ethanone]
200 nM	Cc1cn(CC(=O)N2CCOCC2)c2cc(-c3ccc(F)cc3)cnc12 [Example 28, 2-[6-(4-Fluorophenyl)-3-methyl-pyrrolo[3,2-b]pyridin-1-yl]-1-morpholino-ethanone]
20 nM	O=C(Cn1cc(Cl)c2ncc(-c3ccc(F)c(F)c3)cc21)N1CCC1 [Example 29, 1-(Azetidin-1-yl)-2-[3-chloro-6-(3,4-difluorophenyl)pyrrolo[3,2-b]pyridin-1-yl]ethanone]

Continued, compound first:

Structure (SMILES)	IC50
Cc1cccc(-c2cnc3c(Cl)cn(CC(=O)N4CCOCC4)c3c2)c1 [Example 13, 2-[3-Chloro-6-(m-tolyl)pyrrolo[3,2-b]pyridin-1-yl]-1-morpholino-ethanone]	50.1 nM
O=C(Cn1cc(Br)c2ncc(-c3ccccc3)cc21)NC1CC1 [Example 14, 2-(3-Bromo-6-phenyl-pyrrolo[3,2-b]pyridin-1-yl)-N-cyclopropyl-acetamide]	126 nM
O=C(Cn1cc(Br)c2ncc(-c3ccccc3)cc21)N1CCCC1 [Example 15, 2-(3-Bromo-6-phenyl-pyrrolo[3,2-b]pyridin-1-yl)-1-pyrrolidin-1-yl-ethanone]	39.8 nM
O=C(Cn1cc(Br)c2ncc(-c3ccccc3)cc21)N1CCOCC1 [Example 16, 2-(3-Bromo-6-phenyl-pyrrolo[3,2-b]pyridin-1-yl)-1-morpholino-ethanone]	79.4 nM
O=C(Cn1cc(Br)c2ncc(-c3ccc(F)cc3)cc21)NC1CC1 [Example 17, 2-[3-Bromo-6-(4-fluorophenyl)pyrrolo[3,2-b]pyridin-1-yl]-N-cyclopropyl-acetamide]	50.1 nM
O=C(Cn1cc(Br)c2ncc(-c3ccc(F)cc3)cc21)N1CCC1 [Example 18, 1-(Azetidin-1-yl)-2-[3-bromo-6-(4-fluorophenyl)pyrrolo[3,2-b]pyridin-1-yl]ethanone]	20 nM
O=C(Cn1cc(Br)c2ncc(-c3ccc(F)cc3)cc21)N1CCCC1 [Example 19, 2-[3-Bromo-6-(4-fluorophenyl)pyrrolo[3,2-b]pyridin-1-yl]-1-pyrrolidin-1-yl-ethanone]	31.6 nM
O=C(Cn1cc(Br)c2ncc(-c3ccc(F)cc3)cc21)N1CCOCC1 [Example 20, 2-[3-Bromo-6-(4-fluorophenyl)pyrrolo[3,2-b]pyridin-1-yl]-1-morpholino-ethanone]	50.1 nM
Cc1cccc(-c2cnc3c(Br)cn(CC(=O)NC4CC4)c3c2)c1 [Example 21, 2-[3-Bromo-6-(m-tolyl)pyrrolo[3,2-b]pyridin-1-yl]-N-cyclopropyl-acetamide]	39.8 nM
Cc1cccc(-c2cnc3c(Br)cn(CC(=O)N4CCC4)c3c2)c1 [Example 22, 1-(Azetidin-1-yl)-2-[3-bromo-6-(m-tolyl)pyrrolo[3,2-b]pyridin-1-yl]ethanone]	25.1 nM
Cc1cccc(-c2cnc3c(Br)cn(CC(=O)N4CCCC4)c3c2)c1 [Example 23, 2-[3-Bromo-6-(m-tolyl)pyrrolo[3,2-b]pyridin-1-yl]-1-pyrrolidin-1-yl-ethanone]	50.1 nM
